Assay results as given in US20220340633A1 (Adepthera LLC, priority 2016, published 2022).
“Also recorded” adds a separate entry of the source. Positions of bridges follow the written chain, without caps; N, C: chain ends. Non-standard residues stand in square brackets, D forms with d. Residues, ends and D or L forms follow the SMILES beside them. *: point of attachment. Palmitoyl = CCCCCCCCCCCCCCCC(=O)*; AEEA = NCCOCCOCC(=O)O

Assays:
[1] = test system: primary human lymphatic endothelia cells (HLEC); test: HLEC survival in medium with 0.1% FBS, MTS assay; details: 30, 100, and 300 nM, 72 hrs
Procedure: (§1) The cells were cultured for 72 hrs, and cell viability was assayed with the MTS assay (Promega).

CLR/RAMP2 receptor = target: T1, CLR/RAMP2 receptor (Homo sapiens, UniProt O60895+Q16602); test: CLR/RAMP2 arrestin receptor activation assay (agonist); assay type: cell-based; details: for EC50: CHO-K1 cells stably expressing CLR/RAMP2, arrestin, positive control ADM, read-out: CLR/RAMP 2 EC50; for Emax: CHO-K1, read-out: CLR/RAMP 2 Max Activity % of positive control, CHO-K1 cells
T1 construct: host or cells: CHO-K1 cells
Procedure: (§2) Using a receptor activation assay, the dose-dependent stimulatory response of peptide agonists of the present invention on a CLR/RAMP1 receptor, a CLR/RAMP2, or a CLR/RAMP3 receptor complex was determined. A cell line carrying the recombinant CLR/RAMP1, CLR/RAMP2, or a CLR/RAMP3 receptor was employed in the assay. Peptide agonist activities were tested, in duplicate, at 10 different concentrations, starting with 1.0 μM and serially diluted 3-fold, in DMSO. […] The CLR/RAMP1 cAMP, CLR/RAMP2 arrestin assays, and CLR/RAMP3 cAMP (DiscoveRx, Fremont, Calif.) were used.

CLR/RAMP1 receptor = CLR/RAMP1 receptor (Homo sapiens, UniProt O60894+Q16602); test: CLR/RAMP1 cAMP receptor activation assay (agonist); assay type: cell-based; set-up: host or cells: 1321N1 cells; details: for Emax: 1321-N1, read-out: CLR/RAMP 1 Max Activity % of positive control, 1321N1 cells, % of positive control (β-CGRP); for EC50: 1321N1 cells stably expressing CLR/RAMP1, cAMP, positive control β-CGRP, read-out: CLR/RAMP 1 EC50
Procedure: as §2

CLR/RAMP3 receptor [2] = target: T2, CLR/RAMP3 receptor (Homo sapiens, UniProt O60896+Q16602); test: CLR/RAMP3 cAMP receptor activation assay (agonist); assay type: cell-based; set-up: host or cells: CHO-K1 cells; details: CHO-K1, read-out: CLR/RAMP 3 Max Activity % of positive control
Procedure: as §2

[3] = test system: primary human lymphatic endothelia cells (HLEC); test: HLEC proliferation in medium with 2% FBS, MTS assay; details: 30, 100, and 300 nM, 72 hrs
Procedure: as §1

CLR/RAMP3 receptor [4] = target: T2, CLR/RAMP3 receptor; details: antagonist mode
Procedure: as §2
For the analysis of antagonistic activity, the synthetic analogs were pre-incubated with the cells before adding the reference ligand at its EC80.

Chain of CLR/RAMP1 receptor (Q16602 23-461): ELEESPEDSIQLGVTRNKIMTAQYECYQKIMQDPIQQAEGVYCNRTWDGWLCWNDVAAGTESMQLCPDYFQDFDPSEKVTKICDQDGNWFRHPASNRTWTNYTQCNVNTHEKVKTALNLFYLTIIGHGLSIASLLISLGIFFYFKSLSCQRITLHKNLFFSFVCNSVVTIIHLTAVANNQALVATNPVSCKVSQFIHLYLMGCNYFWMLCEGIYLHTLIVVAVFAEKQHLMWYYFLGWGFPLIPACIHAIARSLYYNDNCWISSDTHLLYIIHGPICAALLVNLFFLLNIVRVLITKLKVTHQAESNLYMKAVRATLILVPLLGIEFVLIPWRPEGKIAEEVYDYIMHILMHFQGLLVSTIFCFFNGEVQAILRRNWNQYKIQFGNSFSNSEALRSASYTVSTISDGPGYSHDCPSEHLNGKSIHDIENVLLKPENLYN
Chain of CLR/RAMP1 receptor (O60894 27-148): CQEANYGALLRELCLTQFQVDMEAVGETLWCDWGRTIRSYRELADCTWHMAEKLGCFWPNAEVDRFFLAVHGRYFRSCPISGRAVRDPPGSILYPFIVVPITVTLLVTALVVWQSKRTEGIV
T2 sequence (Q16602 23-461): as the sequence (Q16602 23-461) above
T2 sequence (O60896 24-148): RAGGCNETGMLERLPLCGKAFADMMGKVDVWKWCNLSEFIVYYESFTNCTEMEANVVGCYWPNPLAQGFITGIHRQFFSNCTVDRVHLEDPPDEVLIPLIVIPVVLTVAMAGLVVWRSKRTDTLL
T1 sequence (Q16602 23-461): as the sequence (Q16602 23-461) above
T1 sequence (O60895 43-175): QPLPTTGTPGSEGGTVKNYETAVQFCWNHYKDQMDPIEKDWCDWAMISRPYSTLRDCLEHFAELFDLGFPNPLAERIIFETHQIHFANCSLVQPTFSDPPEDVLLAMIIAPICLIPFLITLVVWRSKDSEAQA

Compound	HLEC survival (in words) [1]	EC50 (CLR/RAMP2 receptor)	CLR/RAMP 2 Max Activity % of positive control (CLR/RAMP2 receptor; CHO-K1 cells, % of positive control (ADM))	Emax (CLR/RAMP1 receptor)	EC50 (CLR/RAMP1 receptor)	Emax (CLR/RAMP3 receptor [2])	HLEC proliferation (in words) [3]	Emax (CLR/RAMP2 receptor; % of positive control (ADM))	CLR/RAMP3 Max Activity % of positive control (CLR/RAMP3 receptor [4])
CCCCCCCCCCCCCCCC(=O)NCCCC[C@H](NC(=O)COCCOCCN)C(=O)NCC(=O)N[C@H]1CSSC[C@@H](C(=O)N[C@H](C(=O)N[C@H](C(=O)N[C@@H](CCC(N)=O)C(=O)N[C@@H](CCCCN)C(=O)N[C@@H](CC(C)C)C(=O)N[C@@H](C)C(=O)N[C@@H](Cc2c[nH]cn2)C(=O)N[C@@H](CCC(N)=O)C(=O)N[C@H](C(=O)N[C@@H](Cc2ccc(O)cc2)C(=O)N[C@@H](CCC(N)=O)C(=O)N[C@@H](Cc2ccccc2)C(=O)N[C@H](C(=O)N[C@@H](CC(=O)O)C(=O)N[C@@H](CCCCN)C(=O)N[C@@H](CC(=O)O)C(=O)N[C@@H](CCCCN)C(=O)N[C@@H](CC(=O)O)C(=O)N[C@@H](CC(N)=O)C(=O)N[C@@H](CO)C(=O)N[C@@H](C)C(=O)N2CCC[C@H]2C(=O)N[C@H](C(=O)N[C@@H](CC(=O)O)C(=O)N2CCC[C@H]2C(=O)N[C@@H](CO)C(=O)N[C@@H](CO)C(=O)N2CCC[C@H]2C(=O)N[C@@H](Cc2c[nH]cn2)C(=O)N[C@@H](CO)C(=O)N[C@@H](Cc2ccc(O)cc2)C(N)=O)C(C)C)[C@@H](C)O)[C@@H](C)CC)C(C)C)[C@@H](C)O)NC(=O)[C@H]([C@@H](C)O)NC(=O)CNC(=O)[C@H](Cc2ccccc2)NC(=O)[C@H](CCCNC(=N)N)NC1=O [SEQ ID NO: 28]	dose-dependently stimulated; also recorded: significantly promote	0.5 nM	143%	54%	0.3 nM	117%	dose-dependently stimulated; also recorded: significantly promote	–	–
CCCCCCCCCCCCCCCC(=O)NCCCC[C@H](NC(=O)COCCOCCN)C(=O)NCC(=O)N[C@H]1CSSC[C@@H](C(=O)N[C@H](C(=O)N[C@H](C(=O)N[C@@H](CCC(N)=O)C(=O)N[C@@H](CCCCN)C(=O)N[C@@H](CC(C)C)C(=O)N[C@@H](C)C(=O)N[C@@H](Cc2c[nH]cn2)C(=O)N[C@@H](CCC(N)=O)C(=O)N[C@H](C(=O)N[C@@H](Cc2ccc(O)cc2)C(=O)N[C@@H](CCC(N)=O)C(=O)N[C@@H](Cc2ccccc2)C(=O)N[C@H](C(=O)N[C@@H](CC(=O)O)C(=O)N[C@@H](CCCCN)C(=O)N[C@@H](CC(=O)O)C(=O)N[C@@H](CO)C(=O)N[C@@H](C)C(=O)N2CCC[C@H]2C(=O)N[C@H](C(=O)N[C@@H](CC(=O)O)C(=O)N2CCC[C@H]2C(=O)N[C@@H](CO)C(=O)N[C@@H](CO)C(=O)N2CCC[C@H]2C(=O)N[C@@H](Cc2c[nH]cn2)C(=O)N[C@@H](CO)C(=O)N[C@@H](Cc2ccc(O)cc2)C(N)=O)C(C)C)[C@@H](C)O)[C@@H](C)CC)C(C)C)[C@@H](C)O)NC(=O)[C@H]([C@@H](C)O)NC(=O)CNC(=O)[C@H](Cc2ccccc2)NC(=O)[C@H](CCCNC(=N)N)NC1=O [SEQ ID NO: 48] (H-[AEEA]K(Palmitoyl)GCRFGTCTVQKLAHQIYQFTDKDSAPVDPSSPHSY-NH2; disulfide 4-9)	–	0.2 nM	–	78%	0.3 nM	141%	–	77%	–
CCCCCCCCCCCCCCCC(=O)NCCCC[C@H](NC(=O)COCCOCCN)C(=O)NCC(=O)N[C@H]1CSSC[C@@H](C(=O)N[C@H](C(=O)N[C@H](C(=O)N[C@@H](CCC(N)=O)C(=O)N[C@@H](CCCCN)C(=O)N[C@@H](CC(C)C)C(=O)N[C@@H](C)C(=O)N[C@@H](Cc2c[nH]cn2)C(=O)N[C@@H](CCC(N)=O)C(=O)N[C@H](C(=O)N[C@@H](Cc2ccc(O)cc2)C(=O)N[C@@H](CCC(N)=O)C(=O)N[C@@H](Cc2ccccc2)C(=O)N[C@H](C(=O)N[C@@H](CC(=O)O)C(=O)N[C@@H](CCCCN)C(=O)N[C@@H](CC(=O)O)C(=O)N[C@@H](CCCCN)C(=O)N[C@@H](CC(=O)O)C(=O)N[C@@H](CC(N)=O)C(=O)N[C@H](C(=O)N[C@@H](C)C(=O)N2CCC[C@H]2C(=O)N[C@@H](CCCNC(=N)N)C(=O)N[C@@H](CO)C(=O)N[C@@H](CCCCN)C(=O)N[C@H](C(=O)N[C@@H](CO)C(=O)N2CCC[C@H]2C(=O)N[C@@H](CCC(N)=O)C(=O)NCC(=O)N[C@@H](Cc2ccc(O)cc2)C(N)=O)[C@@H](C)CC)C(C)C)[C@@H](C)O)[C@@H](C)CC)C(C)C)[C@@H](C)O)NC(=O)[C@H]([C@@H](C)O)NC(=O)CNC(=O)[C@H](Cc2ccccc2)NC(=O)[C@H](CCCNC(=N)N)NC1=O [SEQ ID NO: 69]	dose-dependently stimulated; also recorded: significantly promote	–	–	70%	–	127%	dose-dependently stimulated; also recorded: significantly promote	147%	–
CCCCCCCCCCCCCCCC(=O)N[C@@H](CCCCN)C(=O)N[C@H](C(=O)N[C@@H](CCC(N)=O)C(=O)N[C@@H](CCCCN)C(=O)N[C@@H](CC(C)C)C(=O)N[C@@H](C)C(=O)N[C@@H](Cc1c[nH]cn1)C(=O)N[C@@H](CCC(N)=O)C(=O)N[C@@H](CO)C(=O)N[C@@H](C)C(=O)N1CCC[C@H]1C(=O)N[C@H](C(=O)N[C@@H](CC(=O)O)C(=O)N1CCC[C@H]1C(=O)N[C@@H](CO)C(=O)N[C@@H](CO)C(=O)N1CCC[C@H]1C(=O)N[C@@H](Cc1c[nH]cn1)C(=O)N[C@@H](CO)C(=O)N[C@@H](Cc1ccc(O)cc1)C(N)=O)C(C)C)C(C)C [SEQ ID NO: 124]	–	–	–	–	–	–	–	–	102%
